Activity calls are given as the source filed them.
What was measured:
[1] = target: Voltage-gated N-type calcium channel alpha-1B subunit/Amyloid beta A4 precursor protein-binding family A member 1 (Homo sapiens, UniProt Q00975+Q02410); test: disruptors of Mint-PDZ/N-type channel peptide interaction – biochemical, HTRF, set 2, SAR follow-up (AID 434980); type: functional
[2] = tested on: Streptococcus sp. 'group A'; test: growth inhibition of control SK(-) GAS strain, dose response, counter-screen for streptokinase expression inhibitor project, luminescence, kanamycin, BacTiterGlo, confirmation (AID 1900); type: functional, organism-based
Streptococcus [3] = test: Luminescence Microorganism-Based Dose Response Follow up to Identify Compounds Cytotoxic to Streptococcus. [Related pubchem assays: 1677 (Project Summary), 1915, 1914, 1902 (Retest at Dose), 1900 (Counter Screen), 1662 (Primary HTS)]; type: functional, organism-based
Streptokinase A = target: T1, Streptokinase A (Streptococcus pyogenes serotype M1, UniProt P10520); test: S. pyogenes streptokinase expression inhibitors, potency, dose response, plasminogen activation absorbance, OD405 (AID 1914); type: functional, Streptococcus pyogenes M1 GAS;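 also: secreted streptokinase activity via plasminogen activation per viability signal from cell pellet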
T1 sequence (P10520 whole entry): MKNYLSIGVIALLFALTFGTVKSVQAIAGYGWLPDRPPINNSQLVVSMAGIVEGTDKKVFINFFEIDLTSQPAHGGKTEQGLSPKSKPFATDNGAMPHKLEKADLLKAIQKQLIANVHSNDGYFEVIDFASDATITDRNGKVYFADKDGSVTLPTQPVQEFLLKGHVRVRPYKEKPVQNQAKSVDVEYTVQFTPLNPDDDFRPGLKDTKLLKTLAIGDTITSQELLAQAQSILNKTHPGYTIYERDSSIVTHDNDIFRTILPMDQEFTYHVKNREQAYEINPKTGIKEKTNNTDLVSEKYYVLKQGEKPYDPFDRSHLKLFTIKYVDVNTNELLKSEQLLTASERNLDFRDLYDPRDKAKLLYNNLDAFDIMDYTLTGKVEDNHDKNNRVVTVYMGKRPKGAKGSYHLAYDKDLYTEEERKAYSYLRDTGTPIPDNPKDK

Streptococcus [4] = test: Group A Streptococcus viability loss, dose response, counter-screen for streptokinase expression inhibitor project, luminescence, BacTiterGlo (AID 1915); type: functional, organism-based;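 also: potency for reduction of bacterial viability or growth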
Tumor necrosis factor = Tumor necrosis factor (Homo sapiens, UniProt P01375); test: TNFa-triggered NF-kB activation inhibitors, SAR follow-up, cell-based, revised (AID 2337); type: functional
Chain of Tumor necrosis factor (P01375 whole entry, the tested form may be a part): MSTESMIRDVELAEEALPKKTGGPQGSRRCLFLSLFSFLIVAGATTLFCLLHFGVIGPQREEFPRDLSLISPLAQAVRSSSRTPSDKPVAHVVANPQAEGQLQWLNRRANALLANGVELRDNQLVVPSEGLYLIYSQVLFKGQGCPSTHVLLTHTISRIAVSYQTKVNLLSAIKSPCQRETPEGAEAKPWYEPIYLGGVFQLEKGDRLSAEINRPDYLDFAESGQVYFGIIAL

[5] = target: T2, Nucleotide-binding oligomerization domain-containing protein 1 (Homo sapiens, UniProt Q9Y239); test: NOD1 signaling inhibitors, SAR follow-up, revised (AID 2333); type: functional
T2 sequence (Q9Y239 whole entry): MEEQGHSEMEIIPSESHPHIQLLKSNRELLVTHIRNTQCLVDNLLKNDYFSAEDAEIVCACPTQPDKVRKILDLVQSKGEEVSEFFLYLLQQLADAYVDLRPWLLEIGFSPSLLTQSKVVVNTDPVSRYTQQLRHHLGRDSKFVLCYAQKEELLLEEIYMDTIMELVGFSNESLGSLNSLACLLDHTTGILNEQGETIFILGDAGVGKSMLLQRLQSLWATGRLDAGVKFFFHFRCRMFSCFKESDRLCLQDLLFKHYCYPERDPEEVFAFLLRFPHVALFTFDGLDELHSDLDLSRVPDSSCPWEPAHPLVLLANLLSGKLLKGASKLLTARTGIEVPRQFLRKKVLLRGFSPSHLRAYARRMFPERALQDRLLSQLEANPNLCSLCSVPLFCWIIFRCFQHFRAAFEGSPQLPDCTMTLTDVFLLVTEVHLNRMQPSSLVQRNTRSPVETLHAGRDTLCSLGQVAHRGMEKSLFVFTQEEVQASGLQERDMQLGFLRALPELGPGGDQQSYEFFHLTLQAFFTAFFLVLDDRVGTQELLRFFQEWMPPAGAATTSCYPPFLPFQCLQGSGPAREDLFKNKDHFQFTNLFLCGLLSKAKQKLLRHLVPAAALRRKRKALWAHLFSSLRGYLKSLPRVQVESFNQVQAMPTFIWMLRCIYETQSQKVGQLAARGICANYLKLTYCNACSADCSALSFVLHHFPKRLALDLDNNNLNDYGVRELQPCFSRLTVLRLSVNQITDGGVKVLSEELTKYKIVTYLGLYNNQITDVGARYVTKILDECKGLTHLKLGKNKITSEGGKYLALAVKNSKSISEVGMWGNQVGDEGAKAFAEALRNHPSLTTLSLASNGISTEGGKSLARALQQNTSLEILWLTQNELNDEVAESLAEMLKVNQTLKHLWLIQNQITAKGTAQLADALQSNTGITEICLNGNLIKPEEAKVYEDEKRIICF

[6] = target: Nucleotide-binding oligomerization domain-containing protein 2 (Homo sapiens, UniProt Q9HC29); test: PubChem AID 2334; type: functional
Chain of Nucleotide-binding oligomerization domain-containing protein 2 (Q9HC29 whole entry, the tested form may be a part): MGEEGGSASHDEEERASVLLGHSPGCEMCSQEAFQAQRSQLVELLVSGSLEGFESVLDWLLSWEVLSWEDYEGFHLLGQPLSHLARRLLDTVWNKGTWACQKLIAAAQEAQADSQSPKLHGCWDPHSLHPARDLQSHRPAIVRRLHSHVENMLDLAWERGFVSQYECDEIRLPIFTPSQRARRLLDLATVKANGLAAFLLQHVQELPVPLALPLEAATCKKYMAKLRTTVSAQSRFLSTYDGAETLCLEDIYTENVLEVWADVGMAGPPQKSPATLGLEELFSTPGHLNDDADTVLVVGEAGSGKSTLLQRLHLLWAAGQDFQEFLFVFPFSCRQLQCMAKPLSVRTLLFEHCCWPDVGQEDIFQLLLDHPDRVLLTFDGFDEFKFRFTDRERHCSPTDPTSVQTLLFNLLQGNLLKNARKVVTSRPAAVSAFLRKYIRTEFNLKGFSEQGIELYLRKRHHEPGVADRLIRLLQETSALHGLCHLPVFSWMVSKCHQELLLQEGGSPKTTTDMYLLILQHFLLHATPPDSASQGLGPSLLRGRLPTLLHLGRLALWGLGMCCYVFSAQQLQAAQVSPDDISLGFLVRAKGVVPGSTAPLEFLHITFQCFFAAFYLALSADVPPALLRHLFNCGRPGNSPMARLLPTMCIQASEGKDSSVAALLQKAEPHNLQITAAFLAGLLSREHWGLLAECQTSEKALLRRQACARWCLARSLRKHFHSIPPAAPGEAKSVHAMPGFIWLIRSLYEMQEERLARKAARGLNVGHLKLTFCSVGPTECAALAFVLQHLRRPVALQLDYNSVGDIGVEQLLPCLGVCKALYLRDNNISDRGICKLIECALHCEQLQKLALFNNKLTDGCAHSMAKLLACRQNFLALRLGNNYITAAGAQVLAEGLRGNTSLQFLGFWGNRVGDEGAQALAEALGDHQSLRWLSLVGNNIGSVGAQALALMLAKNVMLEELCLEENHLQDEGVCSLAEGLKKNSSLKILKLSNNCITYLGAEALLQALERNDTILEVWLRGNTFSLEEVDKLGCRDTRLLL

HEK293 = test: cells; conditions: Homo sapiens;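 also: cells exposed to compound for 14 hours overnight before viability readout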
[7] = target: Scavenger receptor class B member 1 (Mus musculus, UniProt Q61009); test: inhibitors of SR-BI mediated HDL lipid uptake, dose response, ldlA[mSR-BI] cells, fluorescence, cherry pick (AID 493194); type: functional, cell-based;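 also: cellular uptake of fluorescent DiI-labeled HDL measured as cell fluorescence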
Chain of Scavenger receptor class B member 1 (Q61009 whole entry): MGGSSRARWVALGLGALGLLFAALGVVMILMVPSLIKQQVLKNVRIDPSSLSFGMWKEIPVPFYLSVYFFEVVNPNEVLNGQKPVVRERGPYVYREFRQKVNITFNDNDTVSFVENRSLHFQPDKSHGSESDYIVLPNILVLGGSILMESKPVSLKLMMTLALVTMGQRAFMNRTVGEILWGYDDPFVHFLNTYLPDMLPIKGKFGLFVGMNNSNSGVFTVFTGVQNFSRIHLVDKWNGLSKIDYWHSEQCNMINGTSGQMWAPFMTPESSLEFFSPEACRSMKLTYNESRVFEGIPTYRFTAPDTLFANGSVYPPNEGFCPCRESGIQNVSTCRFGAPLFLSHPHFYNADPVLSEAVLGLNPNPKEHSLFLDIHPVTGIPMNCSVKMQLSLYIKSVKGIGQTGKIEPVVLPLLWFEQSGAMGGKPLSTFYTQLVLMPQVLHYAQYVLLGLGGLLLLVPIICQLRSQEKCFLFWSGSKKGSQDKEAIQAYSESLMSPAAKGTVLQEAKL

Chain of Voltage-gated N-type calcium channel alpha-1B subunit/Amyloid beta A4 precursor protein-binding family A member 1 (Q00975 whole entry): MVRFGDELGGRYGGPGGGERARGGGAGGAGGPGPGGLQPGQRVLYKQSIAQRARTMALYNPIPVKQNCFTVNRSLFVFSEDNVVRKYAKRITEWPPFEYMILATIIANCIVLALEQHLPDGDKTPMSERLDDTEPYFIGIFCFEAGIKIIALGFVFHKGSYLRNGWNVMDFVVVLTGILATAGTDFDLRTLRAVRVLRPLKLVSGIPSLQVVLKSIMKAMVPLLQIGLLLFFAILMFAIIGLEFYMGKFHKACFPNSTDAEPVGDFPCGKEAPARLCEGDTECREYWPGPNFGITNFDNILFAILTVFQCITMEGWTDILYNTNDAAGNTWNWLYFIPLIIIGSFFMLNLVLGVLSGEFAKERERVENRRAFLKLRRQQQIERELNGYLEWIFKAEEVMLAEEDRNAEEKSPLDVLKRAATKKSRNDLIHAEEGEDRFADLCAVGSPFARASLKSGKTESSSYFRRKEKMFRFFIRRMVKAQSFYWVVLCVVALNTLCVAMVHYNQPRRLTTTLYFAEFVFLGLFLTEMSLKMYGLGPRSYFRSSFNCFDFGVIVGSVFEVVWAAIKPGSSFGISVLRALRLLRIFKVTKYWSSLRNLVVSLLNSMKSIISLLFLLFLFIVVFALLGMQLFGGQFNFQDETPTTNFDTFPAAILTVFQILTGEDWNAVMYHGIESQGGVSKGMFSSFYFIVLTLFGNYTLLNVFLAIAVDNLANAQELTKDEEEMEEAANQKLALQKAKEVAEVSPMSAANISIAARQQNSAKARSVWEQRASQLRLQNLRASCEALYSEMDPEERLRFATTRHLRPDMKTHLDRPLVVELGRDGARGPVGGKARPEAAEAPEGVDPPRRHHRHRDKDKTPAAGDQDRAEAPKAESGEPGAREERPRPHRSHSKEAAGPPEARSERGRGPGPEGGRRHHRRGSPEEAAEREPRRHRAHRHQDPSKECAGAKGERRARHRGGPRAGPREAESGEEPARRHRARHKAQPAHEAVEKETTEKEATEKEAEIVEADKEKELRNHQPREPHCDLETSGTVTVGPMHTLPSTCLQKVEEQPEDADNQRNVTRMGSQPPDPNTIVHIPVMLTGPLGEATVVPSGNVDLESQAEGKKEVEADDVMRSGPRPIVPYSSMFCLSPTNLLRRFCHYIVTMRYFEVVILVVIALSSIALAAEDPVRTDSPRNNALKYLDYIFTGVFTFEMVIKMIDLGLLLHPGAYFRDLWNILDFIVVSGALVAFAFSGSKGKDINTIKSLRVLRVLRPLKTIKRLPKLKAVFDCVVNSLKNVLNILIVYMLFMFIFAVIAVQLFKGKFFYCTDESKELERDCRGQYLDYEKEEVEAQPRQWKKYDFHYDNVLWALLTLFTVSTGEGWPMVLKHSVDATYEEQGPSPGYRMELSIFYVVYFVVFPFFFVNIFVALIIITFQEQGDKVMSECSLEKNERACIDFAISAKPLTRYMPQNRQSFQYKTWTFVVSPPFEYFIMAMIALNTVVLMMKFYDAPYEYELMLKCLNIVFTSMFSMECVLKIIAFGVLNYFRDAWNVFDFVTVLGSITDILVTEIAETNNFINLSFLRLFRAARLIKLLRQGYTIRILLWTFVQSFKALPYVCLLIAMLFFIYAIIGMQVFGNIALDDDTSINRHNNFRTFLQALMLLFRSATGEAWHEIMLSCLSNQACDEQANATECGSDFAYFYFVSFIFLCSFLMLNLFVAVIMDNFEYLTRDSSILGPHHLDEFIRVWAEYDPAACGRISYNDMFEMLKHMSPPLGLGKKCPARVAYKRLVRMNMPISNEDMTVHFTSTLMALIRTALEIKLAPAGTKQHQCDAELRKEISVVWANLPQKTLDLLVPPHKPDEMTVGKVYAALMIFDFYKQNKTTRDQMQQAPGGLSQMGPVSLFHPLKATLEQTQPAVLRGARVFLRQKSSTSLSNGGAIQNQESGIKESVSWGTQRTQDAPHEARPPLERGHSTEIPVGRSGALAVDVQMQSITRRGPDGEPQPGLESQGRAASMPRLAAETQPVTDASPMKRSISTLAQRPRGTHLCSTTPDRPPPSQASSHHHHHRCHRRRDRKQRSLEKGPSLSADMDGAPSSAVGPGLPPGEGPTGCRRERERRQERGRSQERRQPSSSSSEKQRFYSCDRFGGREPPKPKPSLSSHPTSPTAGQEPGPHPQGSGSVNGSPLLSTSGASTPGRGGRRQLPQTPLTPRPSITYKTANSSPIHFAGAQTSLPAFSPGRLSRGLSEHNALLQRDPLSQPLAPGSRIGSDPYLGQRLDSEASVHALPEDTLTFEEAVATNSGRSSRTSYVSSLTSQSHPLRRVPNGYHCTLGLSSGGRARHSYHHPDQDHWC
Chain of Voltage-gated N-type calcium channel alpha-1B subunit/Amyloid beta A4 precursor protein-binding family A member 1 (Q02410 whole entry): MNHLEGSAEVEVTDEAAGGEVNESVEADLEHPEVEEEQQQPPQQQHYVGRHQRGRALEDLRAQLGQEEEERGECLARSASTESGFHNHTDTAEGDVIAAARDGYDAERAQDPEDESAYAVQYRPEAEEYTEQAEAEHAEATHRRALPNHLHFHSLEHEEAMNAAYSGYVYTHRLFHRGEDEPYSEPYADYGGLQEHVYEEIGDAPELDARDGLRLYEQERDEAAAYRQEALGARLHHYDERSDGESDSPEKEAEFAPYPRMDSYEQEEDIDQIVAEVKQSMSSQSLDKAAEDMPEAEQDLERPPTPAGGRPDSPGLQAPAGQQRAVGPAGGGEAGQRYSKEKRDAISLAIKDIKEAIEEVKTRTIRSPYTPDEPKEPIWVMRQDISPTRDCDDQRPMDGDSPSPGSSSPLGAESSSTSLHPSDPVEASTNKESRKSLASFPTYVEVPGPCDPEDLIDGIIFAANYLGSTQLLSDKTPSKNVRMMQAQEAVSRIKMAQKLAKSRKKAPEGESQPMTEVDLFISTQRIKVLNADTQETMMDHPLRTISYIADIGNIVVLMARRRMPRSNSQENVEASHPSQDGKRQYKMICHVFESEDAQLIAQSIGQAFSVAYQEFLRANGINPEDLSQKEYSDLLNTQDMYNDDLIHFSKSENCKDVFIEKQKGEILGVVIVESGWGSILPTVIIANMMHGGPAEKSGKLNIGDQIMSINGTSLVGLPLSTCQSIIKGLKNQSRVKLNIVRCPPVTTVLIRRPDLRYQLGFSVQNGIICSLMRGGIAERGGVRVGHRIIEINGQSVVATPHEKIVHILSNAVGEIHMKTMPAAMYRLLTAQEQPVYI

CN1CCCC1CCNC(=O)c1cc(-c2ccco2)nc2ccccc12 (stereo not given)
IC50 [1]: 24.5 µM (active)

CCOC(=O)c1c(NC(=O)c2cccs2)sc(CC)c1-c1cccs1
EC50 [2]: 47.6 µM (active)
EC50 (Streptococcus [3]): > 500 µM (not active)
EC50 (Streptokinase A): 9.89 µM (active)
EC50 (Streptococcus [4]): > 150 µM (not active)

O=C(Nc1sc2c(c1C(=O)O)CCCC2)C(=O)N1CCOCC1
IC50 (Tumor necrosis factor): > 20 µM (inactive)
IC50 [5]: > 20 µM (inactive)
IC50 [6]: > 20 µM (inactive)
IC50 (HEK293): > 20 µM (inactive)

Cc1cc(C(=O)C(C)OC(=O)C2=NNC(=O)CC2)c(C)n1-c1ccc(OC(F)F)cc1 (stereo not given)
AC50 [7]: 3.29 µM (active)
